Earlier results on one compound are cited in US20130237556A1, “BERBERINE ALKALOID AS A MEDICAMENT FOR PREVENTION AND TREATMENT OF NEURAL DISEASE” (HONG KONG BAPTIST UNIVERSITY, priority 2012, published 2013).

The test system of this data set is activated microglia. The settings on record: ibuprofen-treated animals; cited from earlier work.

Molecules are shown by their SMILES.

`CC(C)Cc1ccc(C(C)C(=O)O)cc1` (stereo not shown) [ibuprofen]: the “decrease in activated microglia” value was 57%.
